Laboratory results as given in patent US20240092758A1, “IMIDAZOLO INDAZOLE COMPOUNDS AS JAK INHIBITORS” (Theravance Biopharma R&D IP, LLC, priority 2021, published 2024).

Columns and labels:
JAK1 = JAK1 (Homo sapiens (Human), UniProt P23458); assay: Biochemical JAK kinase assay (LanthaScreen), JAK1; details: for Ki: read-out: JAK1 pKi (converted)
Outline: (§1)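 LanthaScreen format: phospho-STAT1 (pTyr701) detected with 2 nM Tb antibody after 10 mM EDTA quench. Kinase step used Km-level ATP and 200 nM STAT1 peptide, 1 h at ambient after 1 h pre-incubation. Inhibition fitted to IC50, reported as pKi.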

JAK2 = JAK2 (Homo sapiens (Human), UniProt O60674); assay: Biochemical JAK kinase assay (LanthaScreen), JAK2; details: for Ki: read-out: JAK2 pKi (converted)
Outline: as §1

JAK3 = JAK3 (Homo sapiens (Human), UniProt P52333); assay: Biochemical JAK kinase assay (LanthaScreen), JAK3; details: read-out: JAK3 pKi (converted)
Method: A panel of four LanthaScreen JAK biochemical assays (JAK1, 2, 3 and Tyk2) were carried in a common kinase reaction buffer (50 mM HEPES, pH 7.5, 0.01% Brij-35, 10 mM MgCl2, and 1 mM EGTA). Recombinant GST-tagged JAK enzymes and a GFP-tagged STAT1 peptide substrate were obtained from Life Technologies.
Serially diluted compounds were pre-incubated with each of the four JAK enzymes and the substrate in white 384-well microplates (Corning) at ambient temperature for 1 h. ATP was subsequently added to initiate the kinase reactions in 10 μL total volume, with 1% DMSO. The final enzyme concentrations for JAK1, 2, 3 and Tyk2 are 4.2 nM, 0.1 nM, 1 nM, and 0.25 nM respectively; the corresponding Km ATP concentrations used are 25 μM, 3 μM, 1.6 μM, and 10 μM; while the substrate concentration is 200 nM for all four assays. Kinase reactions were allowed to proceed for 1 hour at ambient temperature before a 10 μL preparation of EDTA (10 mM final concentration) and Tb-anti-pSTAT1 (pTyr701) antibody (Life Technologies, 2 nM final concentration) in TR-FRET dilution buffer (Life Technologies) was added. The plates were allowed to incubate at ambient temperature for 1 h before being read on the EnVision reader (Perkin Elmer). Emission ratio signals (520 nm/495 nm) were recorded and utilized to calculate the percent inhibition values based on DMSO and background controls.
For dose-response analysis, percent inhibition data were plotted vs. compound concentrations, and IC50 values were determined from a 4-parameter robust fit model with the Prism software (GraphPad Software). Results were expressed as pIC50 (negative logarithm of IC50) and subsequently converted to pKi (negative logarithm of dissociation constant, Ki) using the Cheng-Prusoff equation.
Test compounds having a lower Ki value or higher pKi value in the four JAK assays show greater inhibition of JAK activity.

TYK2 = TYK2 (Homo sapiens (Human), UniProt P29597); assay: Biochemical JAK kinase assay (LanthaScreen), Tyk2; details: read-out: Tyk2 pKi (converted)
Outline: as §1

[1] = test system: IL-13 induced STAT6 phosphorylation in BEAS-2B human lung epithelial cells; assay: Cellular JAKI potency assay (BEAS-2B); type: cell-based; details: Homo sapiens, BEAS-2B, BEAS-2B cells, read-out: BEAS2B pIC50 (converted)
Outline: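 BEAS-2B cells were preincubated with compound (0.1% DMSO) in HBSS/HEPES/BSA for 1 h at 37 °C, then stimulated with IL-13 (80 ng/mL before addition) for 30 min. After lysis, pSTAT6 (Tyr641) was quantified by AlphaLISA SureFire; IC50 from a 4-parameter fit of percent inhibition, reported as pIC50.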

JAK1, sequence (P23458 whole entry): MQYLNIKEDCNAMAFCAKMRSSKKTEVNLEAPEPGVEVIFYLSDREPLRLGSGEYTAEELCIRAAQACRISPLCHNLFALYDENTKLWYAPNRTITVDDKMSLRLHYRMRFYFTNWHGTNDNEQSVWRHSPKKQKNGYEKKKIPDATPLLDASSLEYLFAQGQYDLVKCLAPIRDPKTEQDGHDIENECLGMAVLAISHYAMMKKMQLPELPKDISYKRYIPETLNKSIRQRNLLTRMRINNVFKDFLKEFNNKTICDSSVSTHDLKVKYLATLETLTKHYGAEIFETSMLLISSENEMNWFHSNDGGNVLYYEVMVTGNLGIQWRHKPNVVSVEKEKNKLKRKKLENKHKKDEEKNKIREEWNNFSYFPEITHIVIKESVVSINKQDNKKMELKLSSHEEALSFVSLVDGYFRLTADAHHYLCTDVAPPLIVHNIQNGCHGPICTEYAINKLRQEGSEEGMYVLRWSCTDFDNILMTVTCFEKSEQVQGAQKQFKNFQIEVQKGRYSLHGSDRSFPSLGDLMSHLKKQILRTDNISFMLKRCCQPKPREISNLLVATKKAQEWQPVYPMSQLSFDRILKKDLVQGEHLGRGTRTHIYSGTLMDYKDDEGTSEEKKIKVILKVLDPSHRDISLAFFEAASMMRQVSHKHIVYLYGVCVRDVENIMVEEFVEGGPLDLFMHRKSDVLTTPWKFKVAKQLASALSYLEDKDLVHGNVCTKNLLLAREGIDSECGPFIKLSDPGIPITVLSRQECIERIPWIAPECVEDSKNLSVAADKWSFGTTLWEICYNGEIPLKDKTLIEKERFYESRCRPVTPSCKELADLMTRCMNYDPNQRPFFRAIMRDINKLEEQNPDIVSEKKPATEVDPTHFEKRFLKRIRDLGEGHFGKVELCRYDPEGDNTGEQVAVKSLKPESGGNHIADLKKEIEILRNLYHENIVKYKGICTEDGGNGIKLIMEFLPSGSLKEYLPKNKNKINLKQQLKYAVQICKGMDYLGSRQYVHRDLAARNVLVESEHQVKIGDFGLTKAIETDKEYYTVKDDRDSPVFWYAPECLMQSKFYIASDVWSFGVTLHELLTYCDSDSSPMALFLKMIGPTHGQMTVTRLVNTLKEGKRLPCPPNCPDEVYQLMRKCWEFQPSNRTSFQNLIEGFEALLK
TYK2, sequence (P29597 whole entry): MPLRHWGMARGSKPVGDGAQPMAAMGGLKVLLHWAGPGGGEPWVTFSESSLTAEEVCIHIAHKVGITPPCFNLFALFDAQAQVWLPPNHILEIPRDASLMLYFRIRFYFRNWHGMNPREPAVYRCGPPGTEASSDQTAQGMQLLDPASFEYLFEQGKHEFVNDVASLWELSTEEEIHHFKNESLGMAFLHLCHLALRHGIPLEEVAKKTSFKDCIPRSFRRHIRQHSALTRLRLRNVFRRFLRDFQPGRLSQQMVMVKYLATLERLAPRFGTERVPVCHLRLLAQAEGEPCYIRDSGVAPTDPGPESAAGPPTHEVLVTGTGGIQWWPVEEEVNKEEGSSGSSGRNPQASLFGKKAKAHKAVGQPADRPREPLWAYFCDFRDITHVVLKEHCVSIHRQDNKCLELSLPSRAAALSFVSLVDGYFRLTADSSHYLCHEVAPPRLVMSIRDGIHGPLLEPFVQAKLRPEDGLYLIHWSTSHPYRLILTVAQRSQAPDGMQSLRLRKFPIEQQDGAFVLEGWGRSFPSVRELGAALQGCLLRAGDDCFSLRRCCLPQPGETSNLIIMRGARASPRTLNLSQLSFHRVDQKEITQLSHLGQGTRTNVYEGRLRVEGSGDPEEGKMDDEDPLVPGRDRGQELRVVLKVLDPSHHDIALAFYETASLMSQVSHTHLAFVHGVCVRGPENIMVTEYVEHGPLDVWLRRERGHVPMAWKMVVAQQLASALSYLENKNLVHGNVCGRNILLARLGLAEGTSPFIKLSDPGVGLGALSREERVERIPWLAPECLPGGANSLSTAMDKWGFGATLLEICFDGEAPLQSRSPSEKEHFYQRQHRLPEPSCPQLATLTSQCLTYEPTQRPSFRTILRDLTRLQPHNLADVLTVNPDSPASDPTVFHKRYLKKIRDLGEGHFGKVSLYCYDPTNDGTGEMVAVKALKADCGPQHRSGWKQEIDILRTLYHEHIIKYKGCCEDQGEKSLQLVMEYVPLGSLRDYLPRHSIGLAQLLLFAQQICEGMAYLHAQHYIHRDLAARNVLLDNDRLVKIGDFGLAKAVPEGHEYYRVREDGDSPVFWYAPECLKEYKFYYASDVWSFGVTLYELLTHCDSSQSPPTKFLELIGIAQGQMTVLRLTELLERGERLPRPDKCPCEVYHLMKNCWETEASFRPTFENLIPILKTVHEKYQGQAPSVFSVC
JAK2, sequence (O60674 whole entry): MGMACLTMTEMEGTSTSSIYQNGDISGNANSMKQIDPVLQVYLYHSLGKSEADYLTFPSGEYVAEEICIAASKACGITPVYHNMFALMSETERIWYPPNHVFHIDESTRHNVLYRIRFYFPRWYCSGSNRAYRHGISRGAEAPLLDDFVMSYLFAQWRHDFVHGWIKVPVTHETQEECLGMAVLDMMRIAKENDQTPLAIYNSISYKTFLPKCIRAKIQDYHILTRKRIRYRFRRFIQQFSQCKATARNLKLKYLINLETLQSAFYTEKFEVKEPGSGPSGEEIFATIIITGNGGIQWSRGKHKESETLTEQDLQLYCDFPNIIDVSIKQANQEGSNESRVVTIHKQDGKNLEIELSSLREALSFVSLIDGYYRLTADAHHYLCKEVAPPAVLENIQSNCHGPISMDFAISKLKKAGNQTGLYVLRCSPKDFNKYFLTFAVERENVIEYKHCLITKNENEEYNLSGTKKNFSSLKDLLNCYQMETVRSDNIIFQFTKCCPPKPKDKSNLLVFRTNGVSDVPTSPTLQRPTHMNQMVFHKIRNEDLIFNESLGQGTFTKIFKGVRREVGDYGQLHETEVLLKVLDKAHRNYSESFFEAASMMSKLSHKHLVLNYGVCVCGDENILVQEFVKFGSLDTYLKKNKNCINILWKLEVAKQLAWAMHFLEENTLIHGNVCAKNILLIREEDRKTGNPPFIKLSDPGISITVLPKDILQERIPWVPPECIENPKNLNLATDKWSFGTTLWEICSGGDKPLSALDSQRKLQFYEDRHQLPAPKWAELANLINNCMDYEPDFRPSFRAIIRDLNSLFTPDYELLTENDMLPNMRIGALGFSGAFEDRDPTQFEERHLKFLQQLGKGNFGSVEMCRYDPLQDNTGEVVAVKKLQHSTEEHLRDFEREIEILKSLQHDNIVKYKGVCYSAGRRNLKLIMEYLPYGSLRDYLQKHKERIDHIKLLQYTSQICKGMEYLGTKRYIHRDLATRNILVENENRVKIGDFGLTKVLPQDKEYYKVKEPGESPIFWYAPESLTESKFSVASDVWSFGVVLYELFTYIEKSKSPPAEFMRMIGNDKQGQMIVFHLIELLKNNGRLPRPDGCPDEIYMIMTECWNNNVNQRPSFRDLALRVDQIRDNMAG
JAK3, sequence (P52333 whole entry): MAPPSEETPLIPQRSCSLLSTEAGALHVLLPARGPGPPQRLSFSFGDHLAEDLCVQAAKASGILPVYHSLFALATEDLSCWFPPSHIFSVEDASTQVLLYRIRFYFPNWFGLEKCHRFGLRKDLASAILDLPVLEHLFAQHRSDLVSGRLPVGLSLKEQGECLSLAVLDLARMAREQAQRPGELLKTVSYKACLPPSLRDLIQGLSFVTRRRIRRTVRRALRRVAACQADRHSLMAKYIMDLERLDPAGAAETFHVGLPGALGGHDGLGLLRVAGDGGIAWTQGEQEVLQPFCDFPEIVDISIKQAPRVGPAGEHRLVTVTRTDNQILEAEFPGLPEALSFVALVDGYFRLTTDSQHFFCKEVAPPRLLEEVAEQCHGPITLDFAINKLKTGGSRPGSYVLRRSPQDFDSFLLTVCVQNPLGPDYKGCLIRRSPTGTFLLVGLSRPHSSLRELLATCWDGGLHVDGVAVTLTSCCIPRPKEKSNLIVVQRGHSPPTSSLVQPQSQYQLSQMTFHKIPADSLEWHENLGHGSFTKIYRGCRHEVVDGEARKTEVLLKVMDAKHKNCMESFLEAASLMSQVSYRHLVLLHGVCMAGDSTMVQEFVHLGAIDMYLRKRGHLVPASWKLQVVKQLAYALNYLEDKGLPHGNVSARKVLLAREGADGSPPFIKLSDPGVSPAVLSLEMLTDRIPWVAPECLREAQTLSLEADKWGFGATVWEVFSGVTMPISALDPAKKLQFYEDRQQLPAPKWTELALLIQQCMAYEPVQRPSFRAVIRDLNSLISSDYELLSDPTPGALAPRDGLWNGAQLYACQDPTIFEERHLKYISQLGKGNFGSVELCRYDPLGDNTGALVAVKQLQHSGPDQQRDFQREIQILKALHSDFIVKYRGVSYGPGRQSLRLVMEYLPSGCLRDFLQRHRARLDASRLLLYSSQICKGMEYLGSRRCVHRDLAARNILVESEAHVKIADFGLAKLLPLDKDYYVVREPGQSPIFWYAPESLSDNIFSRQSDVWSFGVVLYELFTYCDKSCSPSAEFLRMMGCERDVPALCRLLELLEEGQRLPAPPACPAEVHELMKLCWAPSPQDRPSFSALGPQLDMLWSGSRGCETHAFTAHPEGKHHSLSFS

In the case of `CCc1cc(O)ccc1-c1ccc2c(-c3nc(C4=CCN(C(=O)CN)CC4)c[nH]3)n[nH]c2c1` [Example 152], the Ki (JAK1) is reported as 0.1 to 1 nM, the “JAK2 pKi” value (JAK2) is reported as “A (A represents a pKi value ≥10 (Ki≤0.1 nM))” and the Ki (JAK3) is reported as 0.1 to 1 nM. The Ki (TYK2) was 1 to 10 nM and the IC50 [1] was 10 to 31.6 nM.
`CCc1cc(O)ccc1-c1ccc2c(-c3nc(C4=CCN(C(=O)[C@@H](N)C(C)(C)O)CC4)c[nH]3)n[nH]c2c1` [Example 153] was tested, and the Ki (JAK1) was 0.1 to 1 nM, the “JAK2 pKi” value (JAK2) was “A (A represents a pKi value ≥10 (Ki≤0.1 nM))” and the Ki (JAK3) was 0.1 to 1 nM. The Ki (TYK2) was 1 to 10 nM and the IC50 [1] was 31.6 to 100 nM.
For `CCc1cc(O)ccc1-c1ccc2c(-c3nc(C4=CCN(C(=O)CN)CC4)c[nH]3)n[nH]c2c1F` [Example 157], the Ki (JAK1) was 0.1 to 1 nM, the “JAK2 pKi” value (JAK2) was “A (A represents a pKi value ≥10 (Ki≤0.1 nM))” and the Ki (JAK3) was 0.1 to 1 nM. It also gave a Ki (TYK2) of 1 to 10 nM and an IC50 [1] of 31.6 to 100 nM.
`CCc1cc(O)ccc1-c1ccc2c(-c3nc(C4=CCN(C(=O)[C@@H](N)C(C)(C)O)CC4)c[nH]3)n[nH]c2c1F` [Example 158] was tested, and the Ki (JAK1) was 1 to 10 nM, the Ki (JAK2) was 0.1 to 1 nM and the Ki (JAK3) was 0.1 to 1 nM. For the same molecule, the Ki (TYK2) was 10 to 100 nM and the IC50 [1] was 31.6 to 100 nM.
`CCc1cc(O)ccc1-c1ccc2c(-c3nc(C4=CCN(C(=O)CN)C4)c[nH]3)n[nH]c2c1F` [Example 173] was tested, and the Ki (JAK1) was 0.1 to 1 nM, the “JAK2 pKi” value (JAK2) was “A (A represents a pKi value ≥10 (Ki≤0.1 nM))” and the Ki (JAK3) was 0.1 to 1 nM. For the same molecule, the Ki (TYK2) was 1 to 10 nM and the IC50 [1] was 31.6 to 100 nM.
`CCc1cc(O)ccc1-c1ccc2c(-c3nc(C4=CCN(C(=O)[C@@H](N)C(C)(C)O)C4)c[nH]3)n[nH]c2c1F` [Example 174] showed a Ki (JAK1) of 0.1 to 1 nM, a Ki (JAK2) of 0.1 to 1 nM and a Ki (JAK3) of 0.1 to 1 nM. The Ki (TYK2) was 1 to 10 nM and the IC50 [1] was 10 to 31.6 nM.
`CCc1cc(O)ccc1-c1ccc2c(-c3nc(C4=CCN(S(=O)(=O)C5CNC5)CC4)c[nH]3)n[nH]c2c1` [Example 175] was tested, and the Ki (JAK1) was 0.1 to 1 nM, the Ki (JAK2) was 0.1 to 1 nM and the Ki (JAK3) was 0.1 to 1 nM. The Ki (TYK2) was 1 to 10 nM and the IC50 [1] was 31.6 to 100 nM.
For `CCc1cc(O)ccc1-c1ccc2c(-c3nc(C4=CCN(S(=O)(=O)C5CNC5)CC4)c[nH]3)n[nH]c2c1F` [Example 178], the Ki (JAK1) was 1 to 10 nM, the Ki (JAK2) was 0.1 to 1 nM and the Ki (JAK3) was 1 to 10 nM. For the same molecule, the Ki (TYK2) was 10 to 100 nM and the IC50 [1] was 100 to 316 nM.
For `CCc1cc(O)ccc1-c1ccc2c(-c3nc(C4=CCN(CCN5CCOCC5)CC4)c[nH]3)n[nH]c2c1` [Example 184], the “JAK1 pKi” value (JAK1) was “A (A represents a pKi value ≥10 (Ki≤0.1 nM))”, the “JAK2 pKi” value (JAK2) was “A (A represents a pKi value ≥10 (Ki≤0.1 nM))” and the Ki (JAK3) was 0.1 to 1 nM. For the same molecule, the Ki (TYK2) was 1 to 10 nM and the IC50 [1] was 3.16 to 10 nM.
With `CCc1cc(O)ccc1-c1ccc2c(-c3nc(C4=CCN(C5CN(C)C5)CC4)c[nH]3)n[nH]c2c1F` [Example 186] the Ki (JAK1) was 0.1 to 1 nM, the Ki (JAK2) was 0.1 to 1 nM and the Ki (JAK3) was 0.1 to 1 nM. It also gave a Ki (TYK2) of 1 to 10 nM and an IC50 [1] of 3.16 to 10 nM.
`CCc1cc(O)ccc1-c1ccc2c(-c3nc(C4=CCN(C[C@@H]5COCCN5)CC4)c[nH]3)n[nH]c2c1F` [Example 189] was tested, and the Ki (JAK1) was 0.1 to 1 nM, the Ki (JAK2) was 0.1 to 1 nM and the Ki (JAK3) was 0.1 to 1 nM. The Ki (TYK2) was 1 to 10 nM and the IC50 [1] was 10 to 31.6 nM.
`CCc1cc(O)ccc1-c1ccc2c(-c3nc(C4=CCN(CCN5CCOCC5)CC4)c[nH]3)n[nH]c2c1F` [Example 191] was tested, and the “JAK1 pKi” value (JAK1) was “A (A represents a pKi value ≥10 (Ki≤0.1 nM))”, the “JAK2 pKi” value (JAK2) was “A (A represents a pKi value ≥10 (Ki≤0.1 nM))” and the Ki (JAK3) was 0.1 to 1 nM. The Ki (TYK2) was 1 to 10 nM and the IC50 [1] was 10 to 31.6 nM.
`CCc1cc(O)ccc1-c1ccc2c(-c3nc(C4=CCCN(C5CCN(C)CC5)C4)c[nH]3)n[nH]c2c1F` [Example 194] gave a Ki (JAK1) of 0.1 to 1 nM, a Ki (JAK2) of 0.1 to 1 nM and a Ki (JAK3) of 0.1 to 1 nM. For the same molecule, the Ki (TYK2) was 1 to 10 nM and the IC50 [1] was 10 to 31.6 nM.
In the case of `CCc1cc(O)ccc1-c1ccc2c(-c3nc(C4=CCCN(C5CN(C)C5)C4)c[nH]3)n[nH]c2c1F` [Example 195], the Ki (JAK1) is reported as 0.1 to 1 nM, the Ki (JAK2) is reported as 0.1 to 1 nM and the Ki (JAK3) is reported as 0.1 to 1 nM. The Ki (TYK2) was 1 to 10 nM and the IC50 [1] was 31.6 to 100 nM.
